Entries after “also recorded” stand apart in the source; their conditions may differ.
What was measured:
[1] = biological target: T1, recombinant human GPBP (Homo sapiens, UniProt Q9Y5P4); assay: In vitro phosphorylation: GPBP kinase activity / autophosphorylation; conditions: for GPBP kinase activity in vitro (autophosphorylation): modulators at 200 μM, 10 min autophosphorylation reaction
T1 sequence (Q9Y5P4 1-624): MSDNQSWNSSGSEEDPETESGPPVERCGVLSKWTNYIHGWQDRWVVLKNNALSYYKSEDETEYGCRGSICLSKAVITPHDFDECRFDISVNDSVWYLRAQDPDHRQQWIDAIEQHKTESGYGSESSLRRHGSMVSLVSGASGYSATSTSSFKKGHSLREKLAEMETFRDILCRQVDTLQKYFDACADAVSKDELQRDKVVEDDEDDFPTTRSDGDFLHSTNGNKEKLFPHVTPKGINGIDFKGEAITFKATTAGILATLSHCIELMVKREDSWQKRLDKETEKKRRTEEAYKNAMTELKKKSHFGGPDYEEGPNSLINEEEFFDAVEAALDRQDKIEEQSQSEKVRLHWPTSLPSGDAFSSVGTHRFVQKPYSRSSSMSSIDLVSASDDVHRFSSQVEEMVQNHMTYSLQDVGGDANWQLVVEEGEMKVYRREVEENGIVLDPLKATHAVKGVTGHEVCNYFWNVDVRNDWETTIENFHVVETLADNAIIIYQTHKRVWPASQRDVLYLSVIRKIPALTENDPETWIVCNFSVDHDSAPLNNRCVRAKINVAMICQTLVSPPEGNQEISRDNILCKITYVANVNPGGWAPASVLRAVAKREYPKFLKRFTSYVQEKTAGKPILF

[2] = system: α3(IV)NC1-expressing cells (HEK293); assay: α3(IV)NC1 conformer production in cultured cells (Western blot of culture media); format: cell-based, human; conditions: for α3(IV)NC1 conformer production in cultured cells: synthetic peptides 100-200 μM, organic compounds 5-50 μM, 24-48 h
[3] = biological target: GPBP-PrP^C complex (Homo sapiens, UniProt Q9Y5P4); format: binding, bovine PrP^C
[4] = system: rat liver lysosomes; format: in vivo; conditions: lysosomes from liver of leupeptin-treated vs untreated rats
Method: FIG. 6. Identification of 91-kDa GPBP isoform in rat liver lysosomes and evidence for processing to 44-47-kDa isoforms. In A, similar amounts (˜50 μg) of lysosomal fractions from liver of untreated (C) or leupeptin-treated (L) rats were analyzed by Western blot using Mab6 antibodies. In B, lysosomal fractions as in A were further fractioned and whole (W), soluble (S) or non-soluble (M) fractions were similarly analyzed.
Subcellular fractioning and related studies. Rat liver subcellular fractionation was essentially performed as indicated in Aniento, F., Roche, E., Cuervo, A. M., Knecht, E. (1993). J. Biol. Chem. 268, 10463-10470. For some purposes lysosomal fractions (freshly prepared entire lysosomes) were dispersed in pure water and subjected to ten consecutive cycles of freezing and thawing to alter lysosomal membrane integrity (broken lysosomes). For other purposes, lysosomal fractions were similarly disrupted in the presence of protease inhibitors (PMSF 2 mM, leupeptin 0.2 mM and EDTA 2 mM) and subsequently centrifuged 130,000×g for 10 min at room temp to separate the soluble lysosomal fraction (also called here lysosomal extract) from the non-soluble fraction which, after rinse with 0.3 M saccharose in 10 mM MOPS pH 7.2, was used as the lysosomal membrane fraction.

[5] = system: GPBP mRNA; assay: Silencing of GPBP expression in 293 cells (Western blot); format: cell-based, human; conditions: 293 cells transfected with silencer plasmid
Method: FIG. 4. Cellular 91- and 120-kDa GPBP-related polypeptides are translation products of GPBP mRNA. Similar amounts (˜50 μg) of lysates from non-transfected 293 cells (1) or from 293 cells transfected with a plasmid encoding for SiGFP (2), SiGPBP (3), SiGPBP/Δ26-1 (4) SiGPBP/Δ26-2 (5), SiGPBP/Δ26-3 (6), SiGPBP/Δ26-4 (7) were analyzed by Western blot using the indicated antibodies.
SimRNA production. Silencers were generated using pSilencer 2.1-U6 hygro plasmid (Ambion) following manufacturers recommendations. The oligonucleotide pairs used were:
Recombinant protein expression in cultured cells. The pcDNA3-based contructs containing the cDNA encoding the different human proteins of interest were used to transfect human 293 cells using standard calcium phosphate procedures in ProFection Mammalian Transfection System (Promega). 24-48 h after transfection cell lysates were used for Western blot, precipitation or immunoprecipitation studies. Cells expressing GPBP or derived deletion mutants were collected on ice with 50 mM Tris HCl pH 7.4, 0.05% Triton X-100, 1 mM PMSF and 5 μg/ml leupeptin, disrupted by vortex and insoluble material discarded by centrifugation at 14.000 rpm in Eppendorf at 4° C. for 10 min and supernatant used for Western blot analysis.

[6] = biological target: T2, GPBP (Homo sapiens, UniProt Q9Y5P4); assay: Auto-phosphorylation of GPBP deletion mutant at pH 5; format: biochemical
T2 sequence (Q9Y5P4 1-299): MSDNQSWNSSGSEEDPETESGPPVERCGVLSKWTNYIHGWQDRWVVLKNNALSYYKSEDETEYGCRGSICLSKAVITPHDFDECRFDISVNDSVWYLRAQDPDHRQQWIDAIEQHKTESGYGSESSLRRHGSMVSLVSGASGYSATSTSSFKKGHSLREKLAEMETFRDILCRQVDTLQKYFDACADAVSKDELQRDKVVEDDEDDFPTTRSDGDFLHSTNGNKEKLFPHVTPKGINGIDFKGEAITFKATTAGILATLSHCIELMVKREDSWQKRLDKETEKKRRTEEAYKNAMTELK

CN([C@@H](Cc1ccc(OS(=O)(=O)c2cccc3cnccc23)cc1)C(=O)N1CCN(c2ccccc2)CC1)S(=O)(=O)c1cccc2cnccc12 [KN62, 1-[N,O-bis-(5-Isoquinolinesulfonyl)-N-methyl-L-tyrosyl]-4-phenylpiperazine, reference compound]
GPBP kinase activity in vitro (autophosphorylation) [1]: inhibited GPBP kinase activity in vitro to a larger extent than KN93
α3(IV)NC1 conformer production in cultured cells [2]: reduced cell conformer production

Cl.N [NH4Cl]
α3(IV)NC1 conformer production ([2]; 20 mM NH4Cl): reduced conformer production

CC[C@@H](C)[C@@H](NC(=O)[C@@H](CS)NC(=O)[C@@H](Cc1c[nH]cn1)NC(=O)[C@@H](CO)NC(=O)[C@@H](CC(C)C)NC(=O)[C@H](NC(=O)[C@@H](C)NC(=O)[C@@H](CC(C)C)NC(C)=O)[C@H](C)O)C(=O)N[C@H](CCC(=O)O)C(=O)N[C@H](CC(C)C)C(=O)N[C@H](CCSC)C(=O)N[C@@H](C(=O)N[C@H](CCCCN)C(=O)N[C@H](CCCNC(=N)N)C(N)=O)C(C)C [Q2D]
effect on GPBP autophosphorylation at decreasing concentrations ([1]; decreasing concentrations up to 10 μM): inhibition
GPBP kinase activity in vitro (autophosphorylation) [1]: more efficient inhibiting
GPBP kinase activity in vitro (autophosphorylation) ([1]; listed as D-amino acid version of Q2): more potent inhibitory activity
GPBP-PrP^C complex formation [3]: fully inhibited

CC[C@H](C)[C@H](NC(=O)[C@H](CS)NC(=O)[C@H](Cc1c[nH]cn1)NC(=O)[C@H](CO)NC(=O)[C@H](CC(C)C)NC(=O)[C@@H](NC(=O)[C@H](C)NC(=O)[C@H](CC(C)C)NC(C)=O)[C@@H](C)O)C(=O)N[C@@H](CCC(=O)O)C(=O)N[C@@H](CC(C)C)C(=O)N[C@@H](CCSC)C(=O)N[C@H](C(=O)N[C@@H](CCCCN)C(=O)N[C@@H](CCCNC(=N)N)C(N)=O)C(C)C [Q2L]
GPBP-PrP^C complex formation [3]: efficiently inhibited

CC(=O)N[C@@H](CC(C)C)C(=O)N[C@@H](CC(C)C)C(=O)N[C@H](C=O)CCCNC(=N)N [leupeptin]
lysosomal GPBP immunoreactive polypeptides [4]: 44-47-kDa polypeptides significantly diminished
presence of α3(IV)NC1 proteolytic products [2]: inhibited the presence of proteolytic products

CN[C@@H]1C[C@H]2O[C@@](C)([C@@H]1OC)n1c3ccccc3c3c4c(c5c6ccccc6n2c5c31)C(=O)NC4 [staurosporine, reference compound]
GPBP kinase activity in vitro (autophosphorylation) [1]: efficiently impaired

Ac-EKTAGKPILF-OH [Q4]
GPBP kinase activity in vitro (autophosphorylation) [1]: inhibited GPBP autophosphorylation in a more limited manner; also recorded: poor inhibitor
α3(IV)NC1 conformer production in cultured cells [2]: reduction in conformer production; also recorded: more limited inhibitory effect

Ac-VLMASLETLCRIHKI-NH2 [Q2Lr, reference compound]
GPBP-PrP^C complex formation [3]: no effect on complex formation

SiGPBP/Δ26-1: silencer of GPBP and/or GPBPΔ26 expression, SEQ ID NO:47 (AAACUACAUUCAUGGGUGGCA; listed as RNA, chemistry not given here)
GPBP expression (endogenous 91- and 120-kDa GPBP) [5]: diminish GPBP and/or GPBPΔ26 expression

SiGPBP/Δ26-2: silencer of GPBP and/or GPBPΔ26 expression, SEQ ID NO:48 (guide AAACAGAGUAUGGCUGCAGAG; listed as RNA, chemistry not given here)
GPBP expression (endogenous 91- and 120-kDa GPBP) [5]: silenced endogenous GPBP more efficiently than SiGPBP/Δ26-4
GPBP expression (endogenous 91- and 120-kDa GPBP) ([5]; listed as siGPBPΔ26-2): diminish GPBP and/or GPBPΔ26 expression

SiGPBP/Δ26-3: silencer of GPBP and/or GPBPΔ26 expression, SEQ ID NO:49 (guide AAGUACUUUGAUGCCUGUGCU; listed as RNA, chemistry not given here)
GPBP expression (endogenous 91- and 120-kDa GPBP) [5]: diminish GPBP and/or GPBPΔ26 expression

SiGPBP/Δ26-4: silencer of GPBP and/or GPBPΔ26 expression, SEQ ID NO:50 (guide AAAGGCGUCACAGGACAUGAA; listed as RNA, chemistry not given here)
GPBP expression (endogenous 91- and 120-kDa GPBP) [5]: diminish GPBP and/or GPBPΔ26 expression

SiGPBP: silencer of GPBP expression, SEQ ID NO:51 (AAGCCCUAUAGUCGCUCUUCC; listed as RNA, chemistry not given here)
GPBP expression (endogenous 91- and 120-kDa GPBP) [5]: diminish GPBP and/or GPBPΔ26 expression

B1: residues 1-299 of GPBP: C-terminal deletion mutant of GPBP with approximately 44-kDa molecular mass, SEQ ID NO:38 (protein)
chain: T2 sequence (Q9Y5P4 1-299)
modifications: Derived sequence
auto-phosphorylation activity [6]: greater auto-phosphorylation activity at pH 5 than full sized GPBP

Reference: patent US7326768B2, “Goodpasture antigen-binding protein isoforms and protein misfolded-mediated disorders” (priority 2003, dated 2008)
